Laboratory results taken from ChEMBL document CHEMBL1201862, “PubChem BioAssay data set” (2004).
The source made the active and inactive calls.

What was measured:
cells = type: functional
[1] = target: Glyceraldehyde-3-phosphate dehydrogenase (Homo sapiens, UniProt P04406)
H9c2 = test: cells; type: functional, cell-based; conditions: Rattus norvegicus, H9c2, Myocardium;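 note: confirmatory concentration-response retest of ultra-high-throughput screening hits for modulation of myocardial damage; cell death induced by hydrogen peroxide oxidative stress; compound pretreatment for 60 min then peroxide exposure for 2 h; potency is for protecting the cells against peroxide damage rather than for killing them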
Leucine aminopeptidase = target: T1, Leucine aminopeptidase (Plasmodium falciparum 3D7, UniProt Q8IL11); test: P. falciparum M17LAP inhibitors, primary screen, biochemical, fluorogenic H-Leu-NHMec substrate, 1536-well (AID 1619); type: functional
T1 sequence (Q8IL11 whole entry): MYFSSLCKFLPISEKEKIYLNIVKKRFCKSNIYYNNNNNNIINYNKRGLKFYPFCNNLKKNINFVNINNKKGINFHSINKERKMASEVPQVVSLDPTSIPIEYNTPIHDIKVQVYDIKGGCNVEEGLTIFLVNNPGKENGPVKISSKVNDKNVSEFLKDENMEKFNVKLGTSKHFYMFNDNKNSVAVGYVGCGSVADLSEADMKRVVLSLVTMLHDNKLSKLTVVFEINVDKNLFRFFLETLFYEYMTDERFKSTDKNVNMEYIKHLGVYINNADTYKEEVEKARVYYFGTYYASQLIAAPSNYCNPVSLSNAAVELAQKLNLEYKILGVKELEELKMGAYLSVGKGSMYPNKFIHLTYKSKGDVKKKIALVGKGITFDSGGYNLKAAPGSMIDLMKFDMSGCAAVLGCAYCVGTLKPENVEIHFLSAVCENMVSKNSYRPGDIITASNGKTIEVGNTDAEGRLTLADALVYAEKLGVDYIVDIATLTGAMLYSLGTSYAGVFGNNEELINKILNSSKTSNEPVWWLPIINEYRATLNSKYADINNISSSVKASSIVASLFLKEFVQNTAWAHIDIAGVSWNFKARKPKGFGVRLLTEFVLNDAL

[2] = target: Luciferin 4-monooxygenase (Photinus pyralis, UniProt P08659); test: inhibition of purified Photinus pyralis luciferase – biochemical, luminescence, dose response (AID 1891)
Chain of Luciferin 4-monooxygenase (P08659 whole entry): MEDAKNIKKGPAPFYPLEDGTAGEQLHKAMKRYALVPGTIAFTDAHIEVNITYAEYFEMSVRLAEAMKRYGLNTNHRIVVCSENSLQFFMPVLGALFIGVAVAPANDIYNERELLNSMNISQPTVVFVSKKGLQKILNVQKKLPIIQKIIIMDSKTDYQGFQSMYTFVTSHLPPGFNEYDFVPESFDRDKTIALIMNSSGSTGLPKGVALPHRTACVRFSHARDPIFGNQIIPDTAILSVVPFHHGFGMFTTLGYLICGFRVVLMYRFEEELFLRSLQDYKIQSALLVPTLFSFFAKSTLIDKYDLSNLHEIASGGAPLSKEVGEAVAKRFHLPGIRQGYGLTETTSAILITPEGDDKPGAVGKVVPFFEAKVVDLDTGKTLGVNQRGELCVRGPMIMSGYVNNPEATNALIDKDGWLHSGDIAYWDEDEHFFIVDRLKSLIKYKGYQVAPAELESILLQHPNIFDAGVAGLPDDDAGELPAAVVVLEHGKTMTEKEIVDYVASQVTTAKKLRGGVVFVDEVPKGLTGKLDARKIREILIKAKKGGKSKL

[3] = Luminescence Cell-Based Dose Confirmation HTS to Identify Inhibitors of Platelet Dense Granule Release. [Related pubchem assays: 1663 (Primary HTS), 1678 (Summary of Project)]; type: functional
Large T antigen = Large T antigen (Simian virus 40, UniProt P03070); type: functional, Betapolyomavirus macacae;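 note: Confirmatory-stage PubChem screen for compounds that inhibit SV40 T antigen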
Chain of Large T antigen (P03070 whole entry): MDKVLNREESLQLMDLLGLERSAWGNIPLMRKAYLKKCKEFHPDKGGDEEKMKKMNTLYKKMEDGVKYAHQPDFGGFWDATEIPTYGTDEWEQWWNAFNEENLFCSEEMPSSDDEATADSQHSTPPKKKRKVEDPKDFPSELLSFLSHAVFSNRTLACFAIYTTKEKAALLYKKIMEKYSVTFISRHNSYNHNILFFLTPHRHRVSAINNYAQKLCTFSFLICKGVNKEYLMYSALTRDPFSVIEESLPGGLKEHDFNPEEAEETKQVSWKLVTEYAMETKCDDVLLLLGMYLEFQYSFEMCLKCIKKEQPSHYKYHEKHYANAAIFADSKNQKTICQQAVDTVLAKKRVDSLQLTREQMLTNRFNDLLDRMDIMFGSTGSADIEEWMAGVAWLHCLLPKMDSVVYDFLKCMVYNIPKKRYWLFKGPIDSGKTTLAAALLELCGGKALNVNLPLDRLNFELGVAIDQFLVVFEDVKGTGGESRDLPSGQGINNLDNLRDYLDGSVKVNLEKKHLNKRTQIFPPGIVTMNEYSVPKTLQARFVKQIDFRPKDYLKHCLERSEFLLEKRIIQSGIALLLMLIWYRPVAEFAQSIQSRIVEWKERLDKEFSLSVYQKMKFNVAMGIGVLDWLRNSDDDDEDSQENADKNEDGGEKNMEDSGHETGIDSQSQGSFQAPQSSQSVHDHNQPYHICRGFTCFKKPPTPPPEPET

[4] = Luminescence Cell-Based Dose Response HTS to Identify Activators of Luciferase Translation or Activity in H4 […] Cells. [Related pubchem assays: 1829 (Project Summary), 1814 (Primary HTS)]; type: functional
Estrogen receptor = target: T2, Estrogen receptor (Homo sapiens, UniProt P03372);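 note: potency for inhibiting coactivator peptide recruitment to the receptor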
T2 sequence (P03372 whole entry): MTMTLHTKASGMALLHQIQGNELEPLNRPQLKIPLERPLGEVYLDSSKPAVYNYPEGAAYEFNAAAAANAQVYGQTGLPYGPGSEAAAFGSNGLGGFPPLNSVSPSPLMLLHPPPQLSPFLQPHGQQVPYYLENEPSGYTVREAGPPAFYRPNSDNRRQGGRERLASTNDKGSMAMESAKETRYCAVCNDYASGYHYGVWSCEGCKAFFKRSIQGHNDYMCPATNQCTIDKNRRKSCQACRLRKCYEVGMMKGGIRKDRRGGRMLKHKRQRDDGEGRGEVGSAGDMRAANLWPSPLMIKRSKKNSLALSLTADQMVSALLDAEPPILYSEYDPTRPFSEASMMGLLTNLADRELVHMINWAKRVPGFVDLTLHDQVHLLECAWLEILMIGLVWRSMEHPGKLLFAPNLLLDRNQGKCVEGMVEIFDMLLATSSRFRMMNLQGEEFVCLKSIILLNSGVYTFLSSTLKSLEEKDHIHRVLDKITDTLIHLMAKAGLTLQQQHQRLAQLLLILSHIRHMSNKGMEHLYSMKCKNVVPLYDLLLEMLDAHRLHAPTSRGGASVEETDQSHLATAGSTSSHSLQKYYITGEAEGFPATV

H4 = test: Luminescence Cell-Based Dose Response HTS to Identify Activators of 5'UTR Stem-Loop Driven Prion Protein mRNA Translation in H4 Neuroglioblastoma Cells. [Related pubchem assays: 1829 (Project Summary), 1814 (Primary HTS)]; type: functional; conditions: Homo sapiens
[5] = Luminescence Cell-Based Dose Confirmation HTS to Identify Activators of 5'UTR Stem-Loop Driven Alpha-Synuclein mRNA Translation in H4 Neuroglioblastoma Cells. [Related pubchem assays: 1829 (Project Summary), 1814 (Primary HTS)]; type: functional
BJ [6] = test: BJ-TERT-LT-ST fibroblast viability loss – cell-based, RAS-independent, luminescence, dose response (AID 1935); type: functional; conditions: Homo sapiens;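 note: BJ fibroblasts immortalized with TERT plus LT and ST oncogenes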
BJ [7] = test: BJ-TERT fibroblast viability loss – cell-based, RAS-independent, luminescence, dose response (AID 1933); type: functional; conditions: Homo sapiens
[8] = DRD fibroblast viability loss – cell-based, non-viral oncogenic, luminescence, dose response (AID 1934); type: functional; conditions: Homo sapiens
BJ [9] = test: cells; type: functional, cell-based; conditions: Homo sapiens
Vero = test: cells; type: functional; conditions: Chlorocebus sabaeus
Fatty acid synthase [10] = target: T3, Fatty acid synthase (Homo sapiens, UniProt P49327); test: inhibition of human FAS-TE enzyme activity – biochemical, kinetic fluorescence intensity, dose response (AID 624326); type: functional;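 note: rate of fluorescence rise from hydrolysis of a fluorogenic O-methyl fluorescein ester substrate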
T3 sequence (P49327 whole entry): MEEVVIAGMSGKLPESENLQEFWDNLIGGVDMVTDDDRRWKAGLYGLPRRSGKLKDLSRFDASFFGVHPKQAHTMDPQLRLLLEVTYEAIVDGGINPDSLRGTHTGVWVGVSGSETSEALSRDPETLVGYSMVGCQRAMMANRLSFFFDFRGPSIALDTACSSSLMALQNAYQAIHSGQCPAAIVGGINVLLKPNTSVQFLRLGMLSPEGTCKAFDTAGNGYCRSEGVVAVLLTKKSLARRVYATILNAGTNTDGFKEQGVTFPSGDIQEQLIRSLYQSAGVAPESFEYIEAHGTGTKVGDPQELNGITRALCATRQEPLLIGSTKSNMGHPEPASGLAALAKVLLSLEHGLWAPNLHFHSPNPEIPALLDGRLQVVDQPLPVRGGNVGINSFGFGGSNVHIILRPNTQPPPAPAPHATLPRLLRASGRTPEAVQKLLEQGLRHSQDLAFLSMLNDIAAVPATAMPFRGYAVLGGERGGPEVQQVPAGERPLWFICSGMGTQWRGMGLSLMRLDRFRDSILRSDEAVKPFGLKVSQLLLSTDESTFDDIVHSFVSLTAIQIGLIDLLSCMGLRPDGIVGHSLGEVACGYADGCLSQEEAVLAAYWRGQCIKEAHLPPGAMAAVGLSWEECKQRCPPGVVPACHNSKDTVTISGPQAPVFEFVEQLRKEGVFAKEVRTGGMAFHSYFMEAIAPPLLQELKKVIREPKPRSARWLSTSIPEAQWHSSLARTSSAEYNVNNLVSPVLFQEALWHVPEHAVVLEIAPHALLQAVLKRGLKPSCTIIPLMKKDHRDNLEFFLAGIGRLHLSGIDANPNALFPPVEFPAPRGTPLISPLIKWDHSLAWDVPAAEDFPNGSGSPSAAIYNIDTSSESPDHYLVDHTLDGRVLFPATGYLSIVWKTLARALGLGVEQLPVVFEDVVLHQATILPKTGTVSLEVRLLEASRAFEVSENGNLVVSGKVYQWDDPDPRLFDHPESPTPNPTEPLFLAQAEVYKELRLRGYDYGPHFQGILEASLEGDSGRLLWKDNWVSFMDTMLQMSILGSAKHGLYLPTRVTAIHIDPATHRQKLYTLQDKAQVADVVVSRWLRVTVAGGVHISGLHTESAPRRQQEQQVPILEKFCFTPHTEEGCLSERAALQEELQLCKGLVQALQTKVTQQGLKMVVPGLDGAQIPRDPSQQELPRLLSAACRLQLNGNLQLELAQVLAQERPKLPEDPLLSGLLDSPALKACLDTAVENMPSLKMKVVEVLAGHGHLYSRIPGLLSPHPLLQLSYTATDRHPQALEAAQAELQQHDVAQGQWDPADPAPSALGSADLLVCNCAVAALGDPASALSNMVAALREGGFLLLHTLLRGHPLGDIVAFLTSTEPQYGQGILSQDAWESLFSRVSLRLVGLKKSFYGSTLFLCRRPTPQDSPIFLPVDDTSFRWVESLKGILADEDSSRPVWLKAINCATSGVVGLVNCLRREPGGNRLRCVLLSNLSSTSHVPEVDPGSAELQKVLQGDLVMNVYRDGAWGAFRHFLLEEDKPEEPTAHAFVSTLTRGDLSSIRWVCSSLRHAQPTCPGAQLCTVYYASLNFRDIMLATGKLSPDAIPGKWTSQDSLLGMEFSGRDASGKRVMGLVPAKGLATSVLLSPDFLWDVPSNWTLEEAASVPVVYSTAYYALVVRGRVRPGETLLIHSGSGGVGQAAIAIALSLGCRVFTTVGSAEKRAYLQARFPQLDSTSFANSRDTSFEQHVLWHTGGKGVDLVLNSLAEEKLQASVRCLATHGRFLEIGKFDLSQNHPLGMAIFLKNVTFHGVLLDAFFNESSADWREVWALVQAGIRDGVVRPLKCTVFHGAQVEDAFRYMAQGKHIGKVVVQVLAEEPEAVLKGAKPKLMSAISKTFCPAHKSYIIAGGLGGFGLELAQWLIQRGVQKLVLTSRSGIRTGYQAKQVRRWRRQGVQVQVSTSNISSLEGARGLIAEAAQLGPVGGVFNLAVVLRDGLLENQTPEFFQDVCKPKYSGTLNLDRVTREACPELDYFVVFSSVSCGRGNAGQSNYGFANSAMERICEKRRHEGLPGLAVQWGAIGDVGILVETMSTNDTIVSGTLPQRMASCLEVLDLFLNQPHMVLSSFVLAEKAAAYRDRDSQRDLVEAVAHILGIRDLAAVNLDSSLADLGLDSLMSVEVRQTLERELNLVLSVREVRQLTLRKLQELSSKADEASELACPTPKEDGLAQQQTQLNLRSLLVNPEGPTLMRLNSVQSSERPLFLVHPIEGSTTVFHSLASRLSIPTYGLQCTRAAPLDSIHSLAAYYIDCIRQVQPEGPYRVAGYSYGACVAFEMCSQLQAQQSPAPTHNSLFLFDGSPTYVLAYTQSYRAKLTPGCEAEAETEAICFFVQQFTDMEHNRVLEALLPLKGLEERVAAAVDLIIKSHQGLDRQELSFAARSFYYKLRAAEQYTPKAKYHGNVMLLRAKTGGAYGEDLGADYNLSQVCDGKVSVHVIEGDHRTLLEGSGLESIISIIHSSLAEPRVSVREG

Fatty acid synthase [11] = target: T3, Fatty acid synthase; test: inhibition of human FAS-TE enzyme activity – biochemical, endpoint fluorescence intensity, uHTS hits, dose response (AID 624327); type: functional;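 note: fluorescence from hydrolysis of an O-methyl fluorescein acyl ester substrate by the enzyme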
[12] = intracellular Trypanosoma cruzi inhibitors in host cells – cell-based, plate reader, cherry-pick samples, set 3, dose response (AID 651818); type: functional;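 note: compounds incubated with infected cells for about four days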
Paired box protein Pax-8 = Paired box protein Pax-8 (Homo sapiens, UniProt Q06710); test: PAX8 transcriptional activity inhibition in RMG-I – RMG-I cells, luciferase, cherry-pick, dose response (AID 687027); type: functional, cell-based;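 note: luciferase reporter driven by Pax8 target thyroperoxidase promoter measured by SteadyGlo luminescence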
Chain of Paired box protein Pax-8 (Q06710 whole entry): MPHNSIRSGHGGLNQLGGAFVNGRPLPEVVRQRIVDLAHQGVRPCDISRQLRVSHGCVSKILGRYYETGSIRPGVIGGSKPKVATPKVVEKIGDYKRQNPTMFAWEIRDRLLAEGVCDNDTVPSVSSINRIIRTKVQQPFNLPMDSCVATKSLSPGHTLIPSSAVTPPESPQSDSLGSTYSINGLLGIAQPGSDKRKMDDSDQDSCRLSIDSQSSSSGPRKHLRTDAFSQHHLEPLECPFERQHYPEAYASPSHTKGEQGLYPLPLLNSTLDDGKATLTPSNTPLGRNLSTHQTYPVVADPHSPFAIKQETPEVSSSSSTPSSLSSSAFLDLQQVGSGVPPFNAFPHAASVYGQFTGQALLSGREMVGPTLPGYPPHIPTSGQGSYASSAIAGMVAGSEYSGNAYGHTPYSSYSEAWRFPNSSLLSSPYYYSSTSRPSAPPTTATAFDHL

[13] = P. falciparum Dd2 growth inhibitors, dose response, SYBR Green, cherry-picked samples (AID 1159567); type: functional, cell-based
[14] = target: T4, Rac GTPase-activating protein 1 (Homo sapiens, UniProt Q9H0H5); test: blockers of MgcRacGAP-driven Rac1 GTP hydrolysis – biochemical, ADP Hunter fluorescence, primary and confirmatory, confirmation (AID 624330); type: functional
T4 sequence (Q9H0H5 whole entry): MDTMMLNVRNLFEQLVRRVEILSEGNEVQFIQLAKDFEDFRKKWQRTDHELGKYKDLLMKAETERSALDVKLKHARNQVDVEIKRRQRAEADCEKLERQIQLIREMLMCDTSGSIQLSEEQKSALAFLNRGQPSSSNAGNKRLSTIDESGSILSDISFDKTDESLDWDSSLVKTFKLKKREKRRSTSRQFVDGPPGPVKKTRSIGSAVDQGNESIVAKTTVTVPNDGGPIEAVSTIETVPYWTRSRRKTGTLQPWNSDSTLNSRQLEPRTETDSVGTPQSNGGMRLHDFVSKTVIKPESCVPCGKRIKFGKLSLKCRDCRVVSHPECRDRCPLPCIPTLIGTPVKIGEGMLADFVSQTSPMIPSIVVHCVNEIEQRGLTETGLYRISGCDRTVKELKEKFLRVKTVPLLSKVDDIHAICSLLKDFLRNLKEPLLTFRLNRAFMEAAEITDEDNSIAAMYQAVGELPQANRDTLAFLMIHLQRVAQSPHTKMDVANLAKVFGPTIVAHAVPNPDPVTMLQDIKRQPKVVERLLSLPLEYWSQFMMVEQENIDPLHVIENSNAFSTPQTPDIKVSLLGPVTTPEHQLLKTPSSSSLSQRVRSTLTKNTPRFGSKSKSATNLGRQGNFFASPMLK

Chain of Glyceraldehyde-3-phosphate dehydrogenase (P04406 whole entry): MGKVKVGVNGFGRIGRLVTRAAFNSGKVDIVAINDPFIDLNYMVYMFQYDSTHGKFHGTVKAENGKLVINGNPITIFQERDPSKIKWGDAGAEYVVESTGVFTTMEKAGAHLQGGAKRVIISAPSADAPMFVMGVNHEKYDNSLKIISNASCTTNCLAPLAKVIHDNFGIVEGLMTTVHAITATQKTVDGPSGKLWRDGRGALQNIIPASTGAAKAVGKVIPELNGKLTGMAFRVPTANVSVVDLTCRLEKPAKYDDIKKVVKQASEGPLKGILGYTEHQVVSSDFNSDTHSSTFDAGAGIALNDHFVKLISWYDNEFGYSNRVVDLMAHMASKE

COc1ccc(C(=O)COC(=O)c2ccc(Cl)nc2)c(OC)c1
IC50 (cells): 13.2 µM (active)

COc1cccc(N2C(=O)C(Cl)=C(N3CCN(Cc4ccc5c(c4)OCO5)CC3)C2=O)c1
IC50 [1]: > 50 µM (inconclusive)

O=C1c2ccccc2C(=O)N1CCCCSc1nc2ccccc2c(=O)n1CCCN1CCOCC1
IC50 (H9c2): 10.1 µM (active)

CCOC(=O)c1cccc(NC(=O)CN2C(=O)C3C4C=CC(C4)C3C2=O)c1 (stereo not given)
IC50 (Leucine aminopeptidase): 14.2 µM (active)

O=C(CN(CCN1CCOCC1)C(=O)Cn1nnc(-c2ccc(F)cc2)n1)NC1CCCCC1
EC50 [2]: > 112 µM (not active) | EC50 [3]: > 112 µM (not active)

Cc1cc(N2CCCCC2)ccc1C=C1C(=O)N(C)C(=S)N(C)C1=O
IC50 (Leucine aminopeptidase): 40.9 µM (active)

O=C(Nc1ccccc1C(=O)Nc1ccccc1C(=O)NCc1ccco1)c1ccco1
IC50 (H9c2): > 79 µM (inactive)

CN1CCc2c(sc3nc(SCC(=O)N4CCCCC4)n(-c4ccccc4)c(=O)c23)C1
EC50 [2]: > 112 µM (not active) | EC50 [3]: 12.9 µM (active)

CN(C)c1ccc(NC(=O)C(=O)C2C(=O)Nc3ccccc32)cc1 (stereo not given)
IC50 (Large T antigen): 25.9 µM (active)

O=C1C(C2=NC(C(=O)O)C3C(=O)N(c4ccccc4)C(=O)C23)=C(O)c2ccccc21 (stereo not given)
IC50 (Leucine aminopeptidase): 68 µM (active)

CCOC(=O)c1c(C)oc2ccc(NS(=O)(=O)c3ccc(C(=O)O)cc3)cc12
IC50 (Leucine aminopeptidase): 43.9 µM (active)

COc1cc(OC)c(C2CC(=O)N3CN(c4ccc(C)cc4)CSC3=C2C#N)cc1OC (stereo not given)
IC50 (Large T antigen): 43.4 µM (active)

O=C(Nc1cccc(C(=O)O)c1)/C(=C\c1ccc2c(c1)OCO2)NC(=O)c1ccc(Br)o1
IC50 (Leucine aminopeptidase): 65 µM (active)

COc1ccc(OCC(=O)Nc2ccc3c(c2)nc(CN2CCCC2)n3C)cc1
EC50 [2]: > 112 µM (not active) | EC50 [3]: > 112 µM (not active)

O=C(CCCCCn1nnc2ccccc2c1=O)N[C@H](C(=O)O)c1ccccc1
EC50 [2]: > 112 µM (not active) | EC50 [3]: > 112 µM (not active)

N#CCCn1c(SCC(=O)c2c[nH]c3ccccc23)nc2ccccc21
IC50 (H9c2): > 79 µM (inactive)

O=C(COC(=O)CCC(=O)c1ccc(F)cc1)Nc1cccc(S(=O)(=O)N2CCCC2)c1
EC50 [2]: > 112 µM (not active) | EC50 [3]: 15.5 µM (active)

COc1cc(/C=C2/C(=N)N3C=CSC3=NC2=O)ccc1OCCCOc1ccccc1C
EC50 [4]: 58.3 µM (active) | IC50 (Estrogen receptor): > 50 µM (not active) | EC50 (H4): 70.8 µM (active) | EC50 [5]: 5.59 µM (active)

COc1ccc(C(=O)c2ccc(N3CCOCC3)c([N+](=O)[O-])c2)cc1
EC50 (BJ [6]): > 150 µM (not active) | EC50 (BJ [7]): > 150 µM (not active) | EC50 [8]: > 150 µM (not active) | EC50 (BJ [9]): > 150 µM (not active)

COc1cc(C(=O)Nc2nc(C)c(Cc3ccc4c(c3)OCO4)s2)cc(OC)c1OC
EC50 (BJ [6]): 1.68 µM (active) | EC50 (BJ [7]): 2.49 µM (active) | EC50 [8]: 2.04 µM (active) | EC50 (BJ [9]): 133 µM (active)

CCc1nnc(NC(=O)C(C)Sc2ccccc2)s1 (stereo not given)
IC50 (Leucine aminopeptidase): 3.57 µM (active)

Cc1cc(C)nc(NN=CC2=C(N3CCOCC3)/C(=C/c3ccc(Cl)cc3)CC2)n1
CC50 (Vero): > 25 µM (active)

CCOc1ccc(N(CC(=O)N/N=C/c2ccccn2)S(=O)(=O)c2ccc(Cl)cc2)cc1
IC50 (H9c2): > 79 µM (inactive) | IC50 (Fatty acid synthase [10]): 5.79 µM (active) | IC50 (Fatty acid synthase [11]): 10.6 µM (active)

COc1ccc(NC(=O)Nc2ccc3c(c2)CC(=O)N([C@H](C)CO)C[C@@H](C)[C@@H](CN(C)Cc2ccc(C(F)(F)F)cc2)O3)cc1
AC50 [12]: 3.52 µM (active)

C[C@@H]1CCCCO[C@H](CN(C)C(=O)Nc2ccc(C(F)(F)F)cc2)[C@@H](C)CN([C@H](C)CO)C(=O)c2cc(NC(=O)Cc3ccccc3)ccc2O1
AC50 [12]: 1.78 µM (active)

C[C@H]1CN([C@@H](C)CO)C(=O)Cc2cc(NC(=O)Nc3ccc(C(F)(F)F)cc3)ccc2O[C@H]1CN(C)CC1CCCCC1
AC50 [12]: 3.6 µM (active)

C[C@@H]1CN([C@H](C)CO)C(=O)Cc2cc(NS(=O)(=O)c3ccccc3)ccc2O[C@@H]1CN(C)S(=O)(=O)c1ccc(Cl)cc1
AC50 [12]: 2.08 µM (active) | AC50 (Paired box protein Pax-8): 35.5 µM (active)

C[C@@H]1CN([C@@H](C)CO)C(=O)Cc2cc(NC(=O)Nc3ccc4c(c3)OCO4)ccc2O[C@@H]1CN(C)Cc1ccc(C(=O)Nc2ccccc2N)cc1
AC50 [12]: 2.38 µM (active)

O=C(Nc1cccc(F)c1)N[C@@H]1CC[C@@H](CCNS(=O)(=O)c2cccc(Cl)c2)O[C@@H]1CO
AC50 [13]: 18.6 µM (active) | AC50 (Paired box protein Pax-8): 42.7 µM (active)

CCOc1cc(/C=N/NC(=O)c2ccccn2)ccc1OC(=O)c1cccs1
IC50 (cells): 26.5 µM (active)

COc1cc(/C=N/N=C(\N)c2nonc2N)ccc1O
IC50 (Large T antigen): 12.2 µM (active) | IC50 [14]: 18.9 µM (active) | EC50 [2]: 52.8 µM (active) | EC50 [3]: 7.47 µM (active)

COc1ccc2c3c([nH]c2c1)[C@H](CO)N(Cc1cc(F)ccc1F)CC31CCN(C(=O)C2CCC2)CC1
AC50 [13]: 3.36 µM (active)

C[C@H](CO)N1C[C@H](C)[C@@H](CN(C)C(=O)Nc2ccc(F)cc2)Oc2ccc(NC(=O)Nc3ccc(C(F)(F)F)cc3)cc2CC1=O
AC50 [13]: 3.77 µM (active)

CC(=O)N1CC2(C1)[C@@H](c1ccc(-c3cccc(F)c3)cc1)[C@@H](CO)N2CC1CCCC1
AC50 [13]: 6.15 µM (active)
